Measured values taken from patent US20230095498A1, “NOVEL COMPOUND AND USE THEREOF” (THE CATHOLIC UNIVERSITY OF KOREA INDUSTRY-ACADEMIC …, priority 2020, published 2023).

Key:
HK-2 cells [1] = assay: Reactive oxygen species (ROS) measurement by DCF-DA flow cytometry in HK-2 cells; format: cell-based, human
Description: After 80% seeding of HK-2 cells, 24 hours later, tacrolimus was treated at a concentration of 60 to 70 μg/ml and SD911 was treated at a concentration of 1 to 20 μM and reacted for 3 to 12 hours, and then 10 μM of DCF-DA (Molecular probes, Carlebad, Calif., USA) was reacted at 37° C. for 1 hour. Then, cells were harvested and analyzed with 0.05% Trypsin and 0.53 mM EDTA. For analysis, aggregated or broken cells were removed using FSC (forward side scatter) and SSC (side scatter) scatter plots (dot plot) using a FACS Calibur (BD bioscience, San Jose, Calif., USA), and the fluorescence fraction was analyzed in the FL-1H channel (Excitation 488 nm, Emission 513 to 535 nm). Based on the cell viability identification results of Example 1, the ROS production inhibitory effect on 1, 5, and 10 μM of SD911 was investigated. […] In […] cells, the effect of SD911 on ROS production inhibitory ability and apoptosis reduction was identified. Based on the cell viability test results of Example 2 (FIG. 2), inhibitory effects of SD911 on ROS production were investigated at 1, 5, and 10 μM of SD911.

HK-2 cells [2] = assay: Cell viability (CCK-8) in HK-2 cells under cytotoxicity induction by tacrolimus; format: cell-based, human; details: for survival rate: Nil = 100%
Description: The human kidney-2 cell line used in this experiment was purchased from ATCC (Manassas, Va., USA) and used. These cells were cultured in Dulbecco's modified Eagle's medium (DMEM; Wisent) containing 10% fetal bovine serum (FBS; Wisent, St. Bruno, Que, Canada), 100 U/mL penicillin, and […] streptomycin (Wisent) in 5% CO2, 37° C. incubator. After 80% seeding of HK-2 cells, 24 hours later, tacrolimus was treated at a concentration of 60 to 70 μg/ml and SD911 was treated at a concentration of 1 to 20 μM and reacted for 3 to 12 hours. In the case of cells isolated as a single cell from mouse spleen tissue, after seeding 2×10^5/cell/200 μl in a 96-well plate in triplicate, each SD911 compound was treated with 1 to 20 μM and reacted for 3 days. Thereafter, the cell counting kit-8 (CCK-8, Dojindo molecular, Rockville, Mass., USA) reagent was treated for 2 hours, and then measured and analyzed at absorbance of 450 nm. The cytoprotective effect of an SD911 compound was investigated under HK-2 cytotoxicity induction by tacrolimus (Tac).

HK-1 cells = assay: Tac-induced apoptosis analysis with PI and Annexin-V; format: cell-based, human; details: Tac combined with SD911 (10 μM), compared to Tac alone
Description: In HK-1 cells, the effect of SD911 on ROS production inhibitory ability and apoptosis reduction was identified. Based on the cell viability test results of Example 2 (FIG. 2), inhibitory effects of SD911 on ROS production were investigated at 1, 5, and 10 μM of SD911.

[3] = test system: immunodeficient mice (NSG) injected with transplantation rejection patient PBMCs; assay: Transplantation rejection patient imitation avatar (humanized NSG mouse) model, immunosuppressant effect; format: in vivo; details: group injected with transplantation rejection patient PBMCs
Excerpt: In order to produce the transplantation rejection avatar animal model of an embodiment of the present invention, PBMCs (peripheral blood mononuclear cells) derived from normal or transplantation rejection patients were intravascularly injected into 8 to 10 week old immunodeficient mice (NSG) at 5×10^6/mice. After 3 weeks, the engraftment of normal or transplantation rejection patients (kidney transplantation rejection patients) cells in the blood was identified in blood cells. Thereafter, the mice were sacrificed 4 weeks after cell transplantation to identify the infiltration of human cells and histological changes in the tissue (FIG. 8).
In order to identify that the transplantation rejection patient imitation avatar model in Example 8 above was properly constructed, engraftment of human cells was analyzed through flow cytometry. Specifically, blood was obtained from the transplantation rejection humanized mice of Example 1 (normal PBMC injection group, HC; transplantation rejection patient PBMC injection group, Patient), and then cells that were positive in reaction with human antibodies were analyzed. In addition, blood […] (SCR) concentration was measured as an index for measuring kidney damage in PBMC-injected mice of normal subjects and transplantation rejection patients. SCR was measured by the quantitative enzymatic colorimetric method (Stanbio laboratory, 0430-120) by isolating serum in animal blood.
Specifically, the transplantation rejection humanized mouse model established in Example 8 above was classified as 1) a normal PBMC injection group, 2) a normal PBMC injection group treated with an immunosuppressant, 3) a transplantation rejection patient PBMC injection group, and 4) a transplantation rejection patient PBMC injection group treated with an immunosuppressant. SD911 was used as the immunosuppressant. Specifically, the animal model of Example 8 above was treated with SD911 at 3 weeks after engraftment of PBMCs. and the same amount of physiological saline was treated as a control group. […]

IL-17 = IL-17 ELISA of cell culture medium under anti-CD3 immune activity; format: cell-based, mouse; details: anti-CD3 stimulation, 3 days, compared to group not treated with SD911
Description: (§1) Cell culture for ELISA was coated with 250 ul of mouse anti-CD3 antibody diluted in ccPBS with 0.5 μg/ml in a 24-well plate as many as the number of conditions. After incubation for 2 hours, the supernatant was removed and the cells were seeded at 1×10^6/cells/1 ml and then treated with each drug. After culturing for 3 days, only the cell culture medium was removed and used as IL-10 and IL-17 ELISA samples.

IL-10 = IL-10 ELISA of cell culture medium under anti-CD3 immune activity; format: cell-based, mouse; details: anti-CD3 stimulation, 3 days, compared to group not treated with SD911
Description: as §1

mouse splenocytes = assay: Toxicity test (CCK-8) on mouse splenocytes; format: cell-based; details: SD911 1, 5, 20 μM, 3 days
Description: After 80% seeding of HK-2 cells, 24 hours later, tacrolimus was treated at a concentration of 60 to 70 μg/ml and SD911 was treated at a concentration of 1 to 20 μM and reacted for 3 to 12 hours. In the case of cells isolated as a single cell from mouse spleen tissue, after seeding 2×10^5/cell/200 μl in a 96-well plate in triplicate, each SD911 compound was treated with 1 to 20 μM and reacted for 3 days. Thereafter, the cell counting kit-8 (CCK-8, Dojindo molecular, Rockville, Mass., USA) reagent was treated for 2 hours, and then measured and analyzed at absorbance of 450 nm.

[4] = target: T1, S1P (Sphingosine 1-phosphate) lyase (Mus musculus, UniProt Q8R0X7); assay: S1P lyase (SPL) activity in liver lysate, HPLC; format: biochemical; details: 5 uM inhibitor, 37° C. for 1 hour
T1 construct: After homogenizing the liver tissue of an experimental animal in a lysis buffer; from tissue; host or cells: liver tissue homogenate of an experimental animal
T1 sequence (Q8R0X7 1-568): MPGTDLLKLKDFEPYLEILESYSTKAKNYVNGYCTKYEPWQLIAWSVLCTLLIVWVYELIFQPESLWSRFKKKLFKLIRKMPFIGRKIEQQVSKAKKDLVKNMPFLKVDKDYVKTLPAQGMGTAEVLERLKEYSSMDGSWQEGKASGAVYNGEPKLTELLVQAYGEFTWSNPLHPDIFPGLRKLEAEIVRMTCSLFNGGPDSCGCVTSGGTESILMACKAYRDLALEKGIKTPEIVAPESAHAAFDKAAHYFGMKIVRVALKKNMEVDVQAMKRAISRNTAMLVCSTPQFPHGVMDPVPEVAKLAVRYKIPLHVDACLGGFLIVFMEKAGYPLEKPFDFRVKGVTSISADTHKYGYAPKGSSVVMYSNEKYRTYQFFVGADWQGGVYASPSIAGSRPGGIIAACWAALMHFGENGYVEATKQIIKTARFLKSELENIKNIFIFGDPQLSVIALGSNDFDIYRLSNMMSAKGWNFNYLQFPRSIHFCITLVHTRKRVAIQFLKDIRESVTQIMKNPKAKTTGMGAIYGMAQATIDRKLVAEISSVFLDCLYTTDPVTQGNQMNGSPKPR
Description: After homogenizing the liver tissue of an experimental animal in a lysis buffer, protein quantification was performed to secure the concentration, and a mixed solution was prepared under the conditions shown in Table 1 below and reacted at 37° C. for 1 hour.

reduction of S1P lyase activity compared to the control [4] | Compound | ROS (DCF-DA fluorescence fraction) (HK-2 cells [1]; tacrolimus (Tac) alone, induction of HK-2 cytotoxicity) [%] | survival rate (HK-2 cells [2]; tacrolimus (Tac) alone) [%] | ratio of necrotic cells, apoptotic cells, and early apoptotic cells & necrotic cells (HK-1 cells) | ROS (DCF-DA fluorescence fraction) (HK-2 cells [1]; 1 μM SD911 combined with tacrolimus) [%] | ROS (DCF-DA fluorescence fraction) (HK-2 cells [1]; 5 μM SD911 combined with tacrolimus) [%] | ROS (DCF-DA fluorescence fraction) (HK-2 cells [1]; 10 μM SD911 combined with tacrolimus) [%] | fluorescence fraction of DCF-DA (ROS) (HK-2 cells [1]; SD911 alone at 1, 5 and 10 μM, compared to Nil) | damage to kidney tissue (GN score, IN score, Vasculitis) ([3]; SD911 at 3 weeks after engraftment, sacrifice 1 week later) | infiltration of IL-17 positive cells in kidney tissue ([3]; immunohistochemical staining) | infiltration of human CD4-positive cells in kidney tissue ([3]; immunohistochemical staining) | IL-17 level (ELISA) (IL-17) | IL-10 level (ELISA) (IL-10) | toxicity on immune cells (cell viability vs Nil group) (mouse splenocytes) | survival rate (HK-2 cells [2]; 1 μM SD911 in combination with tacrolimus) [%] | survival rate (HK-2 cells [2]; 5 μM SD911 in combination with tacrolimus) [%] | survival rate (HK-2 cells [2]; 10 μM SD911 in combination with tacrolimus) [%] | survival rate (HK-2 cells [2]; 20 μM SD911 in combination with tacrolimus) [%] | own drug toxicity (cell viability compared to Nil) (HK-2 cells [2]; SD911 alone at 1, 5, 10 and 20 μM)
 | C=CC[C@@H]1/C=C(\C)C[C@H](C)C[C@H](OC)[C@H]2O[C@@](O)(C(=O)C(=O)N3CCCC[C@H]3C(=O)O[C@H](/C(C)=C/[C@@H]3CC[C@@H](O)[C@H](OC)C3)[C@H](C)[C@@H](O)CC1=O)[C@H](C)C[C@@H]2OC [tacrolimus, reference compound] | 31.6 | 56.7 |  |  |  |  |  |  |  |  |  |  |  |  |  |  |  | 
about 30% | C[C@@H]1CN(c2nnc(Oc3ccccc3)c3ccccc23)CCN1c1ccc(C#N)cn1 [SD911, 6-((R)-2-methyl-4-(1-phenoxyphthalazin-4-yl)piperazin-1-yl)pyridine-3-carbonitrile] |  |  | significantly alleviated compared to Tac alone | 36.5 | 13.7 | 9.3 | almost no difference from that of Nil | the damage to the kidney tissue was reduced | significantly reduced | significantly reduced | decreased IL-17 | increased IL-10 in a concentration-dependent manner | no significant difference compared to the Nil group | 81.7 | 81.8 | 72.0 | 37.4 | did not have its own drug toxicity
